In PMC5786306, “An AKAP-Lbc-RhoA interaction inhibitor promotes the translocation of aquaporin-2 to the plasma membrane of renal collecting duct principal cells” (PLoS ONE, 2018):
Blank lines part the entries; values can stand above or below the molecule they belong to.

How the values were obtained:
[1] = tested on: AQP2 localization and F-actin in primary IMCD cells; experiment: Immunofluorescence microscopy of AQP2 and F-actin in primary IMCD cells; assay type: cell-based, rat
From the text: Primary rat renal inner medullary collecting duct (IMCD) cells were obtained and cultured as previously described. AQP2 was detected with specific rabbit (H27 antibody) and secondary Cy3-coupled antibodies, and F-actin was visualized with Alexa Fluor 647-Phalloidin by laser scanning microscopy (LSM780; Zeiss Jena, Germany) as described.
Fig 8 Scaff10-8 promotes the redistribution of AQP2 to the plasma membrane of primary IMCD cells, which is independent of cAMP elevation and associated with depolymerization of F-actin. (A) Upper panel. IMCD cells were treated with DMSO (1%; control), the solvent of Scaff10-8, or forskolin (10 μM, 30 min) to stimulate cAMP synthesis. Lower panels: The cells were treated for 1 hour with Scaff10-8 (30 μM) alone (control) or with Scaff10-8 and forskolin. Forskolin (10 μM) was added for the final 30 min of Scaff10-8 incubation. AQP2 (green) was detected with specific primary and Cy3-coupled secondary antibodies, F-actin (red) with Alexa Fluor 647-Phalloidin and nuclei with DAPI (blue). Signals were visualized using a laser scanning microscope. Representative images are shown. n = 3. The magnified views were derived from the indicated boxes. (B) The signal intensities arising from intracellular and plasma membrane AQP2 were recorded, related to nuclear signal intensities, and the ratios of plasma membrane to intracellular fluorescence signal intensities were calculated (n = 30 cells per condition). Ratios > 1 indicate a predominant localization of AQP2 at the plasma membrane. Statistically significant differences were calculated using one-way ANOVA with posthoc Bonferroni. Mean ± SEM; *, p ≤ 0.05; *** p ≤ 0.001.

[2] = tested on: AQP2 insertion into the plasma membrane of IMCD cells; experiment: Biotinylation of cell surface proteins; assay type: cell-based, rat; conditions: Scaff10-8 30 μM, 1 or 24 h, forskolin 30 μM, 30 min
Protocol: The assay was performed according to Bogum et al.. IMCD cells were treated with Scaff10-8 at a concentration of 30 μM for 1 or 24 h (0.3% DMSO final concentration). DMSO (0.3%) was used as a control for the 24 h of incubation. Cells were stimulated with forskolin (30 min, 30 μM). Cells were washed twice with ice-cold PBS and incubated with biotinylation buffer (500 μg Biotin per well; 10 mM triethanolamine; 150 mM NaCl; 1 mM MgCl2; 0.1 mM CaCl2; pH 8.0) for 60 min at 4°C. After two washing steps with biotinylation buffer, cells were incubated for 10 min with quenching buffer (50 mM NH4Cl in PBS) at 4°C. Lysates were prepared using biotinylation lysis buffer 1 (SLB; 0.5% Triton X-100; 0.2% BSA; Complete mini EDTA-free). Lysates were sonicated and incubated for 20 min at 37°C. Cell debris was removed by centrifugation (30 min, 15,000x g, 4°C). Lysates were incubated with 80 μl streptavidin agarose beads at 4°C overnight. Beads were washed three times with biotinylation lysis buffer 1 and 2 (SLB; 0.5% Triton X-100; Complete mini EDTA-free). Proteins were eluted using sample buffer and analyzed by Western blotting.
(A) IMCD cells were treated with either compound (30 μM) or DMSO for 1 or 24 h. Membrane proteins were biotinylated followed by precipitation with streptavidin agarose beads. […] (B) Signals from A were quantified by densitometric analysis. […]

[3] = tested on: hypercholesterolemic patients; set-up: method as in PMID 26575415, PMID 21858457; conditions: cited from earlier work
[4] = target: T1, untagged RhoA (human, UniProt P61586 1-193); experiment: MST; GFP-AKAP-Lbc/DHPH constant at 150 nM, unlabeled RhoA titrated 36.01 nM-590 uM in MST buffer; 1 h at room temperature; Monolith NT.115; conditions: both partners purified
T1 construct: RhoA; also called unlabeled RhoA; source: recombinant, purified
T1 sequence (P61586 whole entry): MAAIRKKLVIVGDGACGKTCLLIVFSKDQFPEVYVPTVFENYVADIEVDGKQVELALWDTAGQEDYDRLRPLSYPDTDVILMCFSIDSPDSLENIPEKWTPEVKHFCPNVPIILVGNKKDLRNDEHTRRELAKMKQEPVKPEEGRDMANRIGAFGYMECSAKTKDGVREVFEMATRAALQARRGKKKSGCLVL

Molecule: C=C[C@@]1(C)CC(=O)[C@]2(O)[C@@]3(C)[C@@H](O)CCC(C)(C)[C@@H]3[C@H](O)[C@H](OC(C)=O)[C@@]2(C)O1 [forskolin, reference compound]
F-actin ([1]; Scaff10-8 30 μM alone, forskolin alone): caused depolymerization
localization of AQP2 ([1]; Scaff10-8 30 μM, 1 h, no forskolin, forskolin 10 μM, 30 min): induced its redistribution to the plasma membrane
insertion of AQP2 into the plasma membrane [2]: induced the membrane insertion of AQP2

Molecule: CCC(C)(C)C(=O)O[C@H]1C[C@@H](C)C=C2C=C[C@H](C)[C@H](CC[C@@H]3C[C@@H](O)CC(=O)O3)[C@H]21 [simvastatin]
diuresis and urine osmolality [3]: reduced diuresis and increased urine osmolality

Kd [4]: 42 µM
B1: GFP-AKAP-Lbc/DHPH (domain or fragment)
chain: EAESWSRIIDSKFLKQQKKDVVKRQEVIYELMQTEFHHVRTLKIMSGVYSQGMMADLLFEQQMVEKLFPCLDELISIHSQFFQRILERKKESLVDKSEKNFLIKRIGDVLVNQFSGENAERLKKTYGKFCGQHNQSVNYFKDLYAKDKRFQAFVKKKMSSSVVRRLGIPECILLVTQRITKYPVLFQRILQCTKDNEVEQEDLAQSLSLVKDVIGAVDSKVASYEKKVRLNEIYTKTDSKSIMRMKSGQMFAKEDLKRKKLVRDGSVFLKNAAGRLKEVQAVLLTDILVFLQEKDQKYIFASLDQKSTVISLKKLIVREVAHEEKGLFLISMGMTDPEMVEVHASSKEERNSWIQIIQDTINTL
modifications: GFP and His6 tags left out. Limits are codons 1972-2335, from bp 5,914-7,005 of CCDS32320.1 (human CDS); the nucleotide changes only removed rare codons. The range encloses the annotated DH …
